Experimental data reported in ChEMBL document CHEMBL1201862, “PubChem BioAssay data set” (2004).
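Compound exposure: 48 hours, 5 concentrations, 96-well plates. The concentration for 50% growth inhibition is given as GI50.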 Activity calls are given as the source filed them. No stated cut-off is given here; in the data, active = GI50 up to about 1.1 µM and inactive = higher.

How the values were obtained:
Assay in all cases: DTP human tumour cell line panel, 48 h
LXFL 529 = test system: LXFL 529
SNB-19 = test system: SNB-19
ACHN = test system: ACHN
MOLT-4 = test system: MOLT-4
UACC-62 = test system: UACC-62
NCI-H226 = test system: NCI-H226
IGROV-1 = test system: IGROV-1
UO-31 = test system: UO-31
HCT-15 = test system: HCT-15
OVCAR-8 = test system: OVCAR-8
SF-268 = test system: SF-268
786-0 = test system: 786-0
HL-60 = test system: HL-60
KM12 = test system: KM12
HOP-92 = test system: HOP-92
NCI-H23 = test system: NCI-H23
MDA-N = test system: MDA-N
Hs-578T = test system: Hs-578T
PC-3 = test system: PC-3
NCI/ADR-RES = test system: NCI/ADR-RES

Row | SMILES | GI50 (LXFL 529) | GI50 (SNB-19) | GI50 (ACHN) | GI50 (MOLT-4) | GI50 (UACC-62) | GI50 (NCI-H226) | GI50 (IGROV-1) | GI50 (UO-31) | GI50 (HCT-15) | GI50 (OVCAR-8) | GI50 (SF-268) | GI50 (786-0) | GI50 (HL-60) | GI50 (KM12) | GI50 (HOP-92) | GI50 (NCI-H23) | GI50 (MDA-N) | GI50 (Hs-578T) | GI50 (PC-3) | GI50 (NCI/ADR-RES)
1 | C=CC1(NS(=O)(=O)c2ccc(C)cc2)CCC(C(C)(C)C)CC1 (centres undefined) | 99.5 µM (inactive) | 36.6 µM (inactive) | 65.3 µM (inactive) | > 100 µM (inactive) | 28.5 µM (inactive) | > 100 µM (inactive) | 76.2 µM (inactive) | > 100 µM (inactive) | > 100 µM | 52.8 µM (inactive) | 27 µM (inactive) | 46.8 µM (inactive) | 70.1 µM (inactive) | > 100 µM (inactive) | – | – | – | – | – | –
2 | NC(=O)CC(N/C=C1/N=C(c2ccccc2)OC1=O)C(=O)O (centres undefined) | > 100 µM (inactive) | > 100 µM (inactive) | > 100 µM (inactive) | – | > 100 µM (inactive) | > 100 µM (inactive) | > 100 µM (inactive) | > 100 µM (inactive) | > 100 µM | > 100 µM (inactive) | > 100 µM (inactive) | > 100 µM (inactive) | > 100 µM (inactive) | > 100 µM (inactive) | > 100 µM (inactive) | > 100 µM (inactive) | – | – | – | –
3 | COc1cc([C@@H]2c3cc4c(cc3C(N)C3COC(=O)[C@@H]32)OCO4)cc(OC)c1O (some centres undefined) | 0.117 µM (active) | 0.17 µM (active) | 0.146 µM (active) | 0.266 µM (active) | 0.037 µM (active) | 0.292 µM (active) | 0.515 µM (active) | 0.695 µM (active) | 0.324 µM | 0.308 µM (active) | 0.399 µM (active) | 0.537 µM (active) | 0.19 µM (active) | – | – | 0.373 µM (active) | – | – | – | –
4 | Cc1ccc2c(ccc3[nH]cc(CNc4ccc(NS(C)(=O)=O)cc4)c32)n1 | – | 36.4 µM (inactive) | 33.7 µM (inactive) | 18.6 µM (inactive) | 16.1 µM (inactive) | 20.3 µM (inactive) | 27.8 µM (inactive) | 37.7 µM (inactive) | 38.5 µM | 25.7 µM (inactive) | 23 µM (inactive) | 17.8 µM (inactive) | 27.4 µM (inactive) | 18.3 µM (inactive) | 26.7 µM (inactive) | 18.7 µM (inactive) | 17.5 µM (inactive) | 27.4 µM (inactive) | 25 µM (inactive) | 81.7 µM (inactive)
5 | CNC(=S)N/N=C/c1ccc([N+](=O)[O-])s1 | – | > 10 µM (inactive) | > 10 µM (inactive) | > 10 µM (inactive) | > 10 µM (inactive) | > 10 µM (inactive) | > 10 µM (inactive) | > 10 µM (inactive) | > 10 µM | 7.26 µM (inactive) | > 10 µM (inactive) | > 10 µM (inactive) | 6.44 µM (inactive) | 3.99 µM (inactive) | > 10 µM (inactive) | > 10 µM (inactive) | > 10 µM (inactive) | > 10 µM (inactive) | 3.01 µM (inactive) | > 10 µM (inactive)
6 | N#CC(NC12CC3CC(CC(C3)C1)C2)c1ccc2c(c1)OCO2 (centres undefined) | – | > 100 µM (inactive) | > 100 µM (inactive) | > 100 µM (inactive) | > 100 µM (inactive) | > 100 µM (inactive) | > 100 µM (inactive) | > 100 µM (inactive) | > 100 µM | > 100 µM (inactive) | > 100 µM (inactive) | > 100 µM (inactive) | > 100 µM (inactive) | > 100 µM (inactive) | 89.1 µM (inactive) | > 100 µM (inactive) | > 100 µM (inactive) | > 100 µM (inactive) | > 100 µM (inactive) | > 100 µM (inactive)
7 | COc1cccc2c1C(=O)c1c(O)c3c(c(O)c1C2=O)C[C@@](O)(C(C)=O)C[C@@H]3OC1CC([N+]([O-])(Cc2ccccc2)Cc2ccccc2)C(O)C(C)O1 (some centres undefined) | 1.11 µM (active) | 2.13 µM (inactive) | 1.22 µM (inactive) | 0.191 µM (active) | 1.47 µM (inactive) | – | 1.36 µM (inactive) | 1.27 µM (inactive) | 1.32 µM | 0.774 µM (active) | – | 1.44 µM (inactive) | 1.42 µM (inactive) | 1.48 µM (inactive) | 1.52 µM (inactive) | 1.3 µM (inactive) | – | – | – | –
8 | CCCCCCCCCCNC(=S)OC | 33.7 µM (inactive) | 59.2 µM (inactive) | 33.6 µM (inactive) | 5.83 µM (inactive) | 25 µM (inactive) | – | 25.7 µM (inactive) | 15.8 µM (inactive) | 24.4 µM | 48.2 µM (inactive) | 63 µM (inactive) | 49.3 µM (inactive) | 16.7 µM (inactive) | – | 13.4 µM (inactive) | > 100 µM (inactive) | – | – | – | –
9 | O=C(NNS(=O)(=O)c1ccc(Br)cc1)c1ccc(Cl)cc1NC(=O)C12CC3CC(CC(C3)C1)C2 | – | 15.4 µM (inactive) | 16 µM (inactive) | 6.62 µM (inactive) | 12.4 µM (inactive) | 16.1 µM (inactive) | 11.9 µM (inactive) | 11.7 µM (inactive) | 15.6 µM | 13.6 µM (inactive) | 11.4 µM (inactive) | 19.5 µM (inactive) | 18.9 µM (inactive) | 16.4 µM (inactive) | 12.2 µM (inactive) | 14.2 µM (inactive) | 14.2 µM (inactive) | 17.4 µM (inactive) | 15.9 µM (inactive) | 14.3 µM (inactive)
10 | C=C1CC(Cn2cc(C)c(=O)[nH]c2=O)(c2ccc(Cl)cc2)OC1=O (centres undefined) | – | 23.1 µM (inactive) | 3.83 µM (inactive) | 0.94 µM (active) | 2.44 µM (inactive) | 13.4 µM (inactive) | 1.53 µM (inactive) | 12.9 µM (inactive) | 0.867 µM | 3.64 µM (inactive) | 17.1 µM (inactive) | 1.56 µM (inactive) | 0.863 µM (active) | 13.6 µM (inactive) | 0.438 µM (active) | 3.3 µM (inactive) | 2.99 µM (inactive) | 6.58 µM (inactive) | 3.08 µM (inactive) | 3.98 µM (inactive)
11 | CC1(C)C(c2ccccc2)=NN(O)c2ccccc21 | > 100 µM (inactive) | > 100 µM (inactive) | – | > 100 µM (inactive) | > 100 µM (inactive) | > 100 µM (inactive) | > 100 µM (inactive) | – | > 100 µM | > 100 µM (inactive) | > 100 µM (inactive) | > 100 µM (inactive) | > 100 µM (inactive) | > 100 µM (inactive) | – | > 100 µM (inactive) | – | – | – | –
12 | CCN(CC)C(=S)SC(=S)N(CC)CC | – | 49.8 µM (inactive) | 35.4 µM (inactive) | 26.4 µM (inactive) | 20.8 µM (inactive) | 33.7 µM (inactive) | 30.5 µM (inactive) | 30.3 µM (inactive) | 55 µM | 31.6 µM (inactive) | 41.9 µM (inactive) | 23.7 µM (inactive) | 29.5 µM (inactive) | 28.1 µM (inactive) | 39.4 µM (inactive) | 26.2 µM (inactive) | 43.4 µM (inactive) | 50.7 µM (inactive) | 38.1 µM (inactive) | 42.5 µM (inactive)
13 | Cc1cc(/N=C/c2ccc(C#N)cc2)n(-c2ccccc2)n1 | – | 65.8 µM (inactive) | > 100 µM (inactive) | 42.6 µM (inactive) | 80.4 µM (inactive) | > 100 µM (inactive) | 68.9 µM (inactive) | > 100 µM (inactive) | 50.8 µM | 69 µM (inactive) | 48.5 µM (inactive) | 80.5 µM (inactive) | 20.1 µM (inactive) | 56.1 µM (inactive) | > 100 µM (inactive) | 56.1 µM (inactive) | 37.7 µM (inactive) | 44.2 µM (inactive) | 89.1 µM (inactive) | 65.8 µM (inactive)
14 | C=C1C(=O)O[C@H]2C3C(=C(C)CC[C@@H]12)C(=O)[C@@H]1OC31C (some centres undefined) | – | 15.8 µM (inactive) | 2.6 µM (inactive) | 1.36 µM (inactive) | 2.04 µM (inactive) | 7.48 µM (inactive) | 5.45 µM (inactive) | 4.89 µM (inactive) | 1.66 µM | 2.18 µM (inactive) | 5.19 µM (inactive) | 1.86 µM (inactive) | 0.23 µM (active) | 5.73 µM (inactive) | 2.93 µM (inactive) | 2.21 µM (inactive) | 1.75 µM (inactive) | 3.03 µM (inactive) | 2.69 µM (inactive) | 3.13 µM (inactive)
15 | O=C1CCCN(c2ccccc2)N1 | > 100 µM (inactive) | > 100 µM (inactive) | > 100 µM (inactive) | > 100 µM (inactive) | > 100 µM (inactive) | > 100 µM (inactive) | > 100 µM (inactive) | > 100 µM (inactive) | > 100 µM | > 100 µM (inactive) | > 100 µM (inactive) | > 100 µM (inactive) | > 100 µM (inactive) | > 100 µM (inactive) | – | – | – | – | – | –
16 | Nc1[nH]c(Nc2ccc(Cl)c(Cl)c2)nc2ncnc1-2 | – | 14.1 µM (inactive) | 9.89 µM (inactive) | 11.7 µM (inactive) | 11.9 µM (inactive) | 20.6 µM (inactive) | 4.76 µM (inactive) | 8.73 µM (inactive) | 15.3 µM | 14.7 µM (inactive) | 11 µM (inactive) | 15.7 µM (inactive) | 6.67 µM (inactive) | 13.7 µM (inactive) | 16.6 µM (inactive) | 18.3 µM (inactive) | 17.5 µM (inactive) | 5.87 µM (inactive) | 12 µM (inactive) | 15.9 µM (inactive)
17 | O=C1c2ccccc2C(=O)c2c1cc(S(=O)(=O)O)c(O)c2O [Alizarin Red S] | > 100 µM (inactive) | > 10 µM (inactive) | > 100 µM (inactive) | > 100 µM (inactive) | > 100 µM (inactive) | > 100 µM (inactive) | > 100 µM (inactive) | > 100 µM (inactive) | > 100 µM | > 100 µM (inactive) | > 100 µM (inactive) | > 100 µM (inactive) | – | > 100 µM (inactive) | 90.8 µM (inactive) | > 100 µM (inactive) | – | – | – | –
